ChEMBL document CHEMBL1201862, “PubChem BioAssay data set” (2004)
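Cells were grown in 96-well plates and exposed to each compound for 48 hours at five concentrations; endpoints were interpolated linearly between bracketing concentrations, or set to the highest concentration if not reached. GI50 = concentration required for 50% inhibition of growth.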 The source made the active and inactive calls. Rule as the data show it: active = GI50 up to about 1.1 µM and inactive = higher.

Columns and labels:
Test in all cases: NCI tumour cell line growth inhibition, 48 h
ACHN = tested on: ACHN
NCI-H522 = tested on: NCI-H522
HCT-15 = tested on: HCT-15
SK-MEL-5 = tested on: SK-MEL-5
M14 = tested on: M14
Malme-3M = tested on: Malme-3M
LOX IMVI = tested on: LOX IMVI
SK-OV-3 = tested on: SK-OV-3
OVCAR-3 = tested on: OVCAR-3
COLO 205 = tested on: COLO 205
DU-145 = tested on: DU-145
SN12C = tested on: SN12C
MDA-N = tested on: MDA-N
A549 = tested on: A549
HL-60 = tested on: HL-60
UO-31 = tested on: UO-31
786-0 = tested on: 786-0
SR = tested on: SR
NCI-H23 = tested on: NCI-H23
HOP-92 = tested on: HOP-92
NCI/ADR-RES = tested on: NCI/ADR-RES
PC-3 = tested on: PC-3
NCI-H226 = tested on: NCI-H226
OVCAR-8 = tested on: OVCAR-8
KM12 = tested on: KM12
Hs-578T = tested on: Hs-578T
SNB-75 = tested on: SNB-75
MOLT-4 = tested on: MOLT-4
RXF 393 = tested on: RXF 393
IGROV-1 = tested on: IGROV-1
TK-10 = tested on: TK-10
SF-268 = tested on: SF-268
K562 = tested on: K562
OVCAR-5 = tested on: OVCAR-5
SW-620 = tested on: SW-620
EKVX = tested on: EKVX
SNB-19 = tested on: SNB-19
CCRF-CEM = tested on: CCRF-CEM
SF-539 = tested on: SF-539
BT-549 = tested on: BT-549
OVCAR-4 = tested on: OVCAR-4
HT-29 = tested on: HT-29
SF-295 = tested on: SF-295
UACC-257 = tested on: UACC-257
T47D = tested on: T47D
MDA-MB-435 = tested on: MDA-MB-435
MDA-MB-231 = tested on: MDA-MB-231
SK-MEL-2 = tested on: SK-MEL-2
MCF7 = tested on: MCF7
HCT-116 = tested on: HCT-116
HOP-62 = tested on: HOP-62
U-251 = tested on: U-251
RPMI-8226 = tested on: RPMI-8226
SK-MEL-28 = tested on: SK-MEL-28
CAKI-1 = tested on: CAKI-1
UACC-62 = tested on: UACC-62
NCI-H460 = tested on: NCI-H460
A498 = tested on: A498

SMILES: Cc1ccc([N+](=O)[O-])cc1S(=O)(=O)Nc1ccc(C2=NN(c3ccc([N+](=O)[O-])cc3[N+](=O)[O-])C(c3cccs3)C2)cc1 (stereo not given)
- GI50 (ACHN): 22.4 µM (inactive)
- GI50 (NCI-H522): 10.5 µM (inactive)
- GI50 (HCT-15): 15.4 µM
- GI50 (SK-MEL-5): 11.5 µM (inactive)
- GI50 (M14): 15 µM (inactive)
- GI50 (Malme-3M): 25.9 µM (inactive)
- GI50 (LOX IMVI): 18.3 µM (inactive)
- GI50 (SK-OV-3): 26.1 µM (inactive)
- GI50 (OVCAR-3): 16.1 µM (inactive)
- GI50 (COLO 205): 23.2 µM (inactive)
- GI50 (DU-145): 25.8 µM (inactive)
- GI50 (SN12C): 18 µM (inactive)
- GI50 (MDA-N): 16.2 µM (inactive)
- GI50 (A549): 19.5 µM (inactive)
- GI50 (HL-60): 23.1 µM (inactive)
- GI50 (UO-31): 23.8 µM (inactive)
- GI50 (786-0): 17.1 µM (inactive)
- GI50 (SR): 21 µM (inactive)
- GI50 (NCI-H23): 18.7 µM (inactive)
- GI50 (HOP-92): 16.1 µM (inactive)
- GI50 (NCI/ADR-RES): 17.2 µM (inactive)
- GI50 (PC-3): 25.9 µM (inactive)
- GI50 (NCI-H226): 22.2 µM (inactive)
- GI50 (OVCAR-8): 22 µM (inactive)
- GI50 (KM12): 21 µM (inactive)
- GI50 (Hs-578T): 23.8 µM (inactive)
- GI50 (SNB-75): 19.5 µM (inactive)
- GI50 (MOLT-4): 13.9 µM (inactive)
- GI50 (RXF 393): 18.6 µM (inactive)
- GI50 (IGROV-1): 16.2 µM (inactive)
- GI50 (TK-10): 30 µM (inactive)
- GI50 (SF-268): 16.4 µM (inactive)
- GI50 (K562): 17.2 µM (inactive)
- GI50 (OVCAR-5): 43.9 µM (inactive)
- GI50 (SW-620): 35.7 µM (inactive)
- GI50 (EKVX): 15.8 µM (inactive)
- GI50 (SNB-19): 27.9 µM (inactive)
- GI50 (CCRF-CEM): 24.5 µM (inactive)
- GI50 (SF-539): 27 µM (inactive)
- GI50 (BT-549): 20.7 µM (inactive)
- GI50 (OVCAR-4): 18.5 µM (inactive)
- GI50 (HT-29): 25.9 µM (inactive)
- GI50 (SF-295): 25.6 µM (inactive)
- GI50 (UACC-257): 16 µM (inactive)
- GI50 (T47D): 16.9 µM (inactive)
- GI50 (MDA-MB-435): 21 µM (inactive)
- GI50 (MDA-MB-231): 15 µM (inactive)
- GI50 (SK-MEL-2): 12.1 µM (inactive)
- GI50 (MCF7): 17.3 µM (inactive)
- GI50 (HCT-116): 14.9 µM (inactive)
- GI50 (HOP-62): 19.2 µM (inactive)
- GI50 (U-251): 19.5 µM (inactive)
- GI50 (RPMI-8226): 10.9 µM (inactive)
- GI50 (SK-MEL-28): 56.5 µM (inactive)
- GI50 (CAKI-1): 25.5 µM (inactive)

SMILES: Cc1cc(C)c2c(c1)C1=NCCN1C2(O)c1ccc(Cl)cc1 (stereo not given)
- GI50 (ACHN): 16.1 µM (inactive)
- GI50 (HCT-15): 17.2 µM
- GI50 (SK-MEL-5): 14.6 µM (inactive)
- GI50 (M14): 14.5 µM (inactive)
- GI50 (LOX IMVI): 29.3 µM (inactive)
- GI50 (SK-OV-3): 15 µM (inactive)
- GI50 (OVCAR-3): 15.5 µM (inactive)
- GI50 (COLO 205): 15.1 µM (inactive)
- GI50 (UACC-62): 15.9 µM (inactive)
- GI50 (DU-145): 19.5 µM (inactive)
- GI50 (SN12C): 16.5 µM (inactive)
- GI50 (MDA-N): 15.1 µM (inactive)
- GI50 (A549): 18.2 µM (inactive)
- GI50 (HL-60): 19.9 µM (inactive)
- GI50 (NCI-H460): 14.9 µM (inactive)
- GI50 (UO-31): 13.9 µM (inactive)
- GI50 (786-0): 16.1 µM (inactive)
- GI50 (SR): 20.1 µM (inactive)
- GI50 (NCI-H23): 17.8 µM (inactive)
- GI50 (HOP-92): 7.35 µM (inactive)
- GI50 (NCI/ADR-RES): 14.4 µM (inactive)
- GI50 (PC-3): 16 µM (inactive)
- GI50 (OVCAR-8): 15.8 µM (inactive)
- GI50 (KM12): 15.3 µM (inactive)
- GI50 (Hs-578T): 16.4 µM (inactive)
- GI50 (SNB-75): 12.3 µM (inactive)
- GI50 (MOLT-4): 37.6 µM (inactive)
- GI50 (RXF 393): 13.6 µM (inactive)
- GI50 (IGROV-1): 14.2 µM (inactive)
- GI50 (TK-10): 2.79 µM (inactive)
- GI50 (SF-268): 15.8 µM (inactive)
- GI50 (K562): 19.1 µM (inactive)
- GI50 (OVCAR-5): 16.5 µM (inactive)
- GI50 (SW-620): 15.6 µM (inactive)
- GI50 (EKVX): 16.1 µM (inactive)
- GI50 (SNB-19): 16.2 µM (inactive)
- GI50 (CCRF-CEM): 17.2 µM (inactive)
- GI50 (SF-539): 15.3 µM (inactive)
- GI50 (BT-549): 13.2 µM (inactive)
- GI50 (OVCAR-4): 15.5 µM (inactive)
- GI50 (HT-29): 16.5 µM (inactive)
- GI50 (SF-295): 15.7 µM (inactive)
- GI50 (UACC-257): 17.1 µM (inactive)
- GI50 (T47D): 16.4 µM (inactive)
- GI50 (MDA-MB-435): 16.7 µM (inactive)
- GI50 (A498): 15.2 µM (inactive)
- GI50 (MDA-MB-231): 14.6 µM (inactive)
- GI50 (SK-MEL-2): 18.5 µM (inactive)
- GI50 (MCF7): 18 µM (inactive)
- GI50 (HCT-116): 13.3 µM (inactive)
- GI50 (HOP-62): 15.2 µM (inactive)
- GI50 (U-251): 17.7 µM (inactive)
- GI50 (RPMI-8226): 13.6 µM (inactive)
- GI50 (SK-MEL-28): 16.8 µM (inactive)
- GI50 (CAKI-1): 15.1 µM (inactive)
